In patent publication US12714721B2, “Methods of treatment of a cytokine storm” (Loma Linda University Health, priority 2020, dated 2026):

Test system: LPS-treated animals
Test: Survival study of LPS-treated animals with teriflunomide
Format: in vivo
Conditions: 20 mg/kg of LPS i.p. and 4 mg of teriflunomide
Method: A survival study was performed with sixteen animals per group of LPS-treated animals following no treatment and treatment with teriflunomide. The control group received 20 mg/kg of LPS i.p. and no treatment; whereas the teriflunomide group received 20 mg/kg of LPS and 4 mg of teriflunomide. None of the control animals lived up to 24 hours, whereas 6 of the teriflunomide treat animals lived out to 96 hours at which time they appeared normal. The P value for the difference was less than 0.0021. FIG. 20 is a graphical representation of the survival of LPS-treated animals following no treatment and treatment with teriflunomide. All of the animals were treated with 20 mg/kg of LPS i.p. Kaplan-Meier survival in response to LPS administration. Comparison of the trend of survival curve was done using the log-rank (Mantel-Cox) test (recommended), and ** p<0.01.

In the case of `C/C(O)=C(\C#N)C(=O)Nc1ccc(C(F)(F)F)cc1` [teriflunomide], the Median survival (Kaplan-Meier) was 48.00 and the “animals that lived out to 96 hours” value (sixteen animals per group) was 6.
